Read-outs that look alike come from different tables or passages of the source.
How the values were obtained:
[1] = Exposure and tissue distribution after 14 days repeat dosing, rat; assay type: in vivo; details: for concentration at 2 h / Kp at 2 h: rat, sc, 2 h post last dose
Protocol: Single time point data is available from two 14 days repeat dose studies in mice and rats dosed to both sexes. The three low doses were performed together as one study and the top dose was performed at another occasion as a satellite study.
Samples were taken 2 h post last dose.
Plasma, brain and liver were taken 2 h post last dose.

[2] = beagle, dog, in vivo, iv
Protocol: Data presented are mean±s.e. mean where n=4 for all time points, excluding D2t7 where n=3, D3t7 where n=2, and D4t7 and D4t26 where no data was available. Animals received 1, 3, 10, and 30 mg/kg compound (I) as 4 intravenous infusions (starting at t0, D1t30, D2t30 and D3t30, respectively). Each dose was administered over 5 min, using an infusion pump, and the dose volume for each treatment was 2 ml/kg, with the exception of the fourth dose which was 3 ml/kg.
Data presented are mean±s.e. mean where n=4 for all time points, excluding D4t7 and D4t26 where no data was available. Animals received 1, 3, 10, and 30 mg/kg compound (I) as 4 intravenous infusions (starting at t0, D1t30, D2t30 and D3t30, respectively). Each dose was administered over 5 min, using an infusion pump, and the dose volume for each treatment was 2 ml/kg, with the exception of the fourth dose which was 3 ml/kg.

CYP 2C19 = CYP 2C19 (Homo sapiens, UniProt P33261); test: CYP450 inhibition, cocktail of selective substrates, 2C19; assay type: in vitro ADME; details: CYP 2C19, Omeprazole to 5-hydroxyomeprazole; read-out: IC50 of compound (I)
Protocol: Compound (I) was tested for CYP450 inhibition using a cocktail of selective substrates. […] This might be addressed later in a clinical study.

[3] = Metabolic stability in liver microsomes, guinea pig; assay type: in vitro ADME
Protocol: The metabolic stability of compound (I) was tested in liver microsomes from all in house available species at 1 and 5 μM. One metabolite of 16 mass units higher than parent, was found in all incubations, except with human liver microsomes.

DA transporter [4] = target: T1, DA transporter (Mus musculus, UniProt Q61327); test: In vivo ^3H-WIN 35.428 binding (DA transporter occupancy), PD/PK
T1 construct: in vivo DAT transporter occupancy (open bars) in mouse striatum; from tissue; host or cells: mouse striatum (in vivo; C57 mice in the MPTP model)
Protocol: The relationship between brain concentrations of compound (I) and transporter occupancy was investigated in in vivo ^3H-WIN 35.428 binding in mice. A relationship between increasing plasma and brain concentrations with each increase in dose level, and a corresponding increase in CNS in vivo DA transporter occupancy 90 min post administration. In both cases there was a close correlation between plasma and brain concentrations and in vivo transporter occupancy in brain, the brain to plasma ratio was approximately 4 at 3, 10 and 30 mg/kg (FIG. 1). […] The inhibition of in vivo WIN binding was measured 90 min after p.o. administration of the compound.
The in vivo receptor occupancy (RO %) of compound (I) was calculated at the MED values (DOSE) in mFST and in the mouse motility test using the formula RO % (estimated)=DOSE 100/(ED50+DOSE). The calculations were based on ED50 values in ex vivo uptake of 5-HT and NA and WIN in vivo binding.
It is known that the critical factor for psychomimetic side effects of a dopaminergic drug is the speed of inhibition of the DA transporter rather than the increase in DA release per se.

DA transporter [5] = target: DA transporter (Homo sapiens, UniProt Q01959); test: ^3H-uptake human, DA transporter; assay type: biochemical
From the text: Compound (I) has been characterized as a monoamine reuptake inhibitor, based on the profile in a series of functional assays (Table 2).

anesthetized rats = test: Induction of erection in anesthetized rats (intracavernous pressure); assay type: in vivo, rat
Protocol: FIG. 25: Average spontaneous increases in (A) intracavernous pressure, (B) duration and (C) frequency of these events after infusion of the compound (I) (1 mg/kg) in young (6 week old male Wistar rats) and old (14-16 week old male rats) rats. Results are means±s.e. mean.
FIG. 26: Average rises in number of spontaneous erections measured as intracavernous pressure (ICP) after infusion of, respectively, 0.001 mg/kg, 0.01 mg/kg, 0.1 mg/kg, and 1 mg/kg compound (I) in anesthetized rats (n=4-6).
FIG. 27: Average effect of (A) vehicle (n=5), and compound (I) on mean arterial pressure (MAP) and erectile response measured as peak intracavernous pressure (PICP) over MAP (PICP/MAP) in anesthetized (B) 6 week old male Wistar rats (n=6), and (C) 14-16 week old male rats (n=6). Vehicle and compound (I) were administered after establishing the maximal (10 Hz, 1 ms, 6 V) and submaximal (submax) responses (10 Hz, 1 ms, 0.6-1.55 V) to cavernous nerve stimulation for 30 s. Submaximal stimulation was repeated 3, 13, 23, and 33 min after drug or vehicle administration. Upper traces show the mean arterial pressure (MAP), bars represent the erectile response ((PICP/MAP)·100), where PICP is the peak intracavernous pressure. […]
Compound (I) was administered intravenously to rats in dosages of 0.001, 0.01, 0.1, and 1.0 mg/kg, and the number of spontaneous erections was measured. […]

T1 sequence (Q61327 whole entry): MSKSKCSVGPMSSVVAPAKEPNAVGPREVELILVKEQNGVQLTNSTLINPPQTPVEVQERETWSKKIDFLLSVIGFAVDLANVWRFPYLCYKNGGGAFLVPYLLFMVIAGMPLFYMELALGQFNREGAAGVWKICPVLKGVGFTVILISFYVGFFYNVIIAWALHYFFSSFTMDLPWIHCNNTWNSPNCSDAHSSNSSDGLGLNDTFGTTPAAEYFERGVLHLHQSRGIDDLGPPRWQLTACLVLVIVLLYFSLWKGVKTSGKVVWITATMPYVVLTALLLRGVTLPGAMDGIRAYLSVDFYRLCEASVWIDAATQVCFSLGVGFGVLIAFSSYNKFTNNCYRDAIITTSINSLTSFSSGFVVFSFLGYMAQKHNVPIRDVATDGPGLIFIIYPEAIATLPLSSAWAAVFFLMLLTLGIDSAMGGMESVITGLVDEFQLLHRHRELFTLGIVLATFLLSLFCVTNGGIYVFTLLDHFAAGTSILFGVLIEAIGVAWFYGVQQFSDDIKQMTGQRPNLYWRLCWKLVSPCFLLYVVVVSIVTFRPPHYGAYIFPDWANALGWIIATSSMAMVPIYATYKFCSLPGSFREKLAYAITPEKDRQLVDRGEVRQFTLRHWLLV
Sequence of DA transporter (Homo sapiens, UniProt Q01959) (Q01959 whole entry): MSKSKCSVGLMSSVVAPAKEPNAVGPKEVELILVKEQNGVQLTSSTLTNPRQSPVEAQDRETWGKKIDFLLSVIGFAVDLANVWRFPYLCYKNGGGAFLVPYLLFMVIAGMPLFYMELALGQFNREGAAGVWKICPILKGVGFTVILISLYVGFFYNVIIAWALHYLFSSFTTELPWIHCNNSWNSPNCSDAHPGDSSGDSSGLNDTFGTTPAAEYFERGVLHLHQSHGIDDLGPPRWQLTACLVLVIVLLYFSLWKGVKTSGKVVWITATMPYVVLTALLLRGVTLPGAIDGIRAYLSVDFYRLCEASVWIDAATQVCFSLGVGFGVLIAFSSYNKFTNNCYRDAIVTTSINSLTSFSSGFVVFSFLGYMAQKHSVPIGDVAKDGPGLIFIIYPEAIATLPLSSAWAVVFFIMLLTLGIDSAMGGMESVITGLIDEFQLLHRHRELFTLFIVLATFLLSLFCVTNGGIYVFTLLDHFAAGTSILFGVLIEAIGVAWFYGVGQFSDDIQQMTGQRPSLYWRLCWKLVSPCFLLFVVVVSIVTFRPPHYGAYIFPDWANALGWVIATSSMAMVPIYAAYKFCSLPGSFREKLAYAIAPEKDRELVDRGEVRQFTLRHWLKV
Sequence of CYP 2C19 (P33261 whole entry): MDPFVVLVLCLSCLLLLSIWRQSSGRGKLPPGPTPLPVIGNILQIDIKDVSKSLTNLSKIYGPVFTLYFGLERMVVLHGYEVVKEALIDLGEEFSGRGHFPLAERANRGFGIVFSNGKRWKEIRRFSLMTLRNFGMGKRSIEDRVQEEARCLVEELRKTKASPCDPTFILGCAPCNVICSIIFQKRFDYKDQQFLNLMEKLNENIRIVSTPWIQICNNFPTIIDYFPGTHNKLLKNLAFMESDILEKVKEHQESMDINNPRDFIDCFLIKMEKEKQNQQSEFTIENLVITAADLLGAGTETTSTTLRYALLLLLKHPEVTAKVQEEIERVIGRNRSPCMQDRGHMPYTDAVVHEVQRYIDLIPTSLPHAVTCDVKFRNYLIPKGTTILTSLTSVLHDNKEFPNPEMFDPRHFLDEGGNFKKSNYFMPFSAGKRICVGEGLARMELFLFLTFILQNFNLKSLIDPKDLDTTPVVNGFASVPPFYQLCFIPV

SMILES: O=c1ccc2ccc(O[C@@H]3C[C@H]4CC[C@@H](C3)N4)cc2o1 [Compound (I), exo-7-(8-aza-bicyclo[3.2.1]oct-3-yloxy)-chromen-2-one]
- concentration at 2 h ([1]; Wistar, brain, Female rats, 5 mg/kg s.c. 14 days, read-out: Brain concentration): 468 ng/g
- concentration at 2 h ([1]; Wistar, brain, Female rats, 10 mg/kg s.c. 14 days, read-out: Brain concentration): 1020 ng/g
- concentration at 2 h ([1]; Wistar, brain, Female rats, 15 mg/kg s.c. 14 days, read-out: Brain concentration): 1580 ng/g
- concentration at 2 h ([1]; Wistar, brain, Female rats, 25 mg/kg s.c. 14 days, read-out: Brain concentration): 2080 ng/g
- concentration at 2 h ([1]; Wistar, brain, Male rats, 5 mg/kg s.c. 14 days, read-out: Brain concentration): 519 ng/g
- concentration at 2 h ([1]; Wistar, brain, Male rats, 10 mg/kg s.c. 14 days, read-out: Brain concentration): 1380 ng/g
- concentration at 2 h ([1]; Wistar, brain, Male rats, 15 mg/kg s.c. 14 days, read-out: Brain concentration): 1950 ng/g
- concentration at 2 h ([1]; Wistar, brain, Male rats, 25 mg/kg s.c. 14 days, read-out: Brain concentration): 2580 ng/g
- Kp at 2 h ([1]; Wistar, brain/plasma, Female rats, 5 mg/kg s.c. 14 days, read-out: Brain/plasma ratio): 7
- Kp at 2 h ([1]; Wistar, brain/plasma, Female rats, 10 mg/kg s.c. 14 days, read-out: Brain/plasma ratio): 7
- Kp at 2 h ([1]; Wistar, brain/plasma, Female rats, 15 mg/kg s.c. 14 days, read-out: Brain/plasma ratio): 6
- Kp at 2 h ([1]; Wistar, brain/plasma, Male rats, 5 mg/kg s.c. 14 days, read-out: Brain/plasma ratio): 7
- Kp at 2 h ([1]; Wistar, brain/plasma, Male rats, 10 mg/kg s.c. 14 days, read-out: Brain/plasma ratio): 6
- Kp at 2 h ([1]; Wistar, brain/plasma, Male rats, 15 mg/kg s.c. 14 days, read-out: Brain/plasma ratio): 5
- Kp at 2 h ([1]; Wistar, in vivo, Female rats, 5 mg/kg s.c. 14 days, read-out: Liver/plasma ratio): 5
- Kp at 2 h ([1]; Wistar, in vivo, Female rats, 10 mg/kg s.c. 14 days, read-out: Liver/plasma ratio): 5
- Kp at 2 h ([1]; Wistar, in vivo, Female rats, 15 mg/kg s.c. 14 days, read-out: Liver/plasma ratio): 5
- Kp at 2 h ([1]; Wistar, in vivo, Male rats, 5 mg/kg s.c. 14 days, read-out: Liver/plasma ratio): 3
- Kp at 2 h ([1]; Wistar, in vivo, Male rats, 10 mg/kg s.c. 14 days, read-out: Liver/plasma ratio): 3
- Kp at 2 h ([1]; Wistar, in vivo, Male rats, 15 mg/kg s.c. 14 days, read-out: Liver/plasma ratio): 2
- concentration at 2 h ([1]; Wistar, liver, Female rats, 5 mg/kg s.c. 14 days, read-out: Liver concentration): 319 ng/g
- concentration at 2 h ([1]; Wistar, liver, Female rats, 10 mg/kg s.c. 14 days, read-out: Liver concentration): 738 ng/g
- concentration at 2 h ([1]; Wistar, liver, Female rats, 15 mg/kg s.c. 14 days, read-out: Liver concentration): 1520 ng/g
- concentration at 2 h ([1]; Wistar, liver, Male rats, 5 mg/kg s.c. 14 days, read-out: Liver concentration): 259 ng/g
- concentration at 2 h ([1]; Wistar, liver, Male rats, 10 mg/kg s.c. 14 days, read-out: Liver concentration): 737 ng/g
- concentration at 2 h ([1]; Wistar, liver, Male rats, 15 mg/kg s.c. 14 days, read-out: Liver concentration): 921 ng/g
- concentration at 2 h ([1]; Wistar, plasma, Female rats, 5 mg/kg s.c. 14 days, read-out: Plasma concentration): 67 ng/mL
- concentration at 2 h ([1]; Wistar, plasma, Female rats, 10 mg/kg s.c. 14 days, read-out: Plasma concentration): 149 ng/mL
- concentration at 2 h ([1]; Wistar, plasma, Female rats, 15 mg/kg s.c. 14 days, read-out: Plasma concentration): 281 ng/mL
- concentration at 2 h ([1]; Wistar, plasma, Male rats, 5 mg/kg s.c. 14 days, read-out: Plasma concentration): 77 ng/mL
- concentration at 2 h ([1]; Wistar, plasma, Male rats, 10 mg/kg s.c. 14 days, read-out: Plasma concentration): 242 ng/mL
- concentration at 2 h ([1]; Wistar, plasma, Male rats, 15 mg/kg s.c. 14 days, read-out: Plasma concentration): 398 ng/mL
- Kp at 2 h ([1]; brain/plasma, Female rats, 25 mg/kg s.c. 14 days, read-out: Brain/plasma ratio): 5
- Kp at 2 h ([1]; brain/plasma, Male rats, 25 mg/kg s.c. 14 days, read-out: Brain/plasma ratio): 5
- Kp at 2 h ([1]; in vivo, Female rats, 25 mg/kg s.c. 14 days, read-out: Liver/plasma ratio): 6
- Kp at 2 h ([1]; in vivo, Male rats, 25 mg/kg s.c. 14 days, read-out: Liver/plasma ratio): 3
- concentration at 2 h ([1]; liver, Female rats, 25 mg/kg s.c. 14 days, read-out: Liver concentration): 2310 ng/g
- concentration at 2 h ([1]; liver, Male rats, 25 mg/kg s.c. 14 days, read-out: Liver concentration): 1560 ng/g
- concentration at 2 h ([1]; plasma, Female rats, 25 mg/kg s.c. 14 days, read-out: Plasma concentration): 412 ng/mL
- concentration at 2 h ([1]; plasma, Male rats, 25 mg/kg s.c. 14 days, read-out: Plasma concentration): 512 ng/mL
- Linearity of kinetics after repeat dosing ([1]; rats, 5-25 mg/kg s.c. 14 days, 5% glucose): slight tendency to supra-linear kinetics
- Average conc. of compound (I) at 5 min (max), total plasma ([2]; 1 mg/kg): 631 ng/mL
- Average conc. of compound (I) at 5 min (max), total plasma ([2]; 3 mg/kg): 2120 ng/mL
- Average conc. of compound (I) at 5 min (max), total plasma ([2]; 10 mg/kg): 6560 ng/mL
- Average conc. of compound (I) at 5 min (max), total plasma ([2]; 30 mg/kg): 15000 ng/mL
- IC50 (CYP 2C19): > 100000 nM
- Stability at 1 μM [3]: 98%
- Stability at 5 μM [3]: 82%
- DA RO % (DA transporter [4]; estimated at MED in mFST (NMRI mice), DOSE 1 mg/kg): 9%
- DA RO % (DA transporter [4]; estimated at MED in mMotility, DOSE 10 mg/kg): 50%
- In vivo WIN binding time course (DA transporter [4]; mice, 20 mg/kg p.o.): slow onset of DA transporter blockade in vivo
- Kp at 1.5 h (DA transporter [4]; mouse, brain, po, mice, 3, 10 and 30 mg/kg p.o., 90 min post administration, read-out: Brain to plasma ratio): ~4
- ED50 (DA transporter [4]; mouse, po, read-out: ED50 in WIN in vivo binding in mice): 9.9 mg/kg
- IC50 (DA transporter [5]): 100 nM
- Ki (DA transporter [5]): 100 nM
- Human transporter ratio (DA transporter [5]; DA versus 5-HT): 56
- Induction of erection (anesthetized rats; 1 mg/kg): induce erection in both young and adult rats
- Number of spontaneous erections versus dose (anesthetized rats; intravenously 0.001, 0.01, 0.1 and 1.0 mg/kg): increased with increasing dosage from 0.001 to 0.1 mg/kg, but decreased abruptly at a dose of 1.0 mg/kg
